# Data as given in patent publication US4966973A, “2-substituted coumaran derivatives” (Takeda Chemical Industries, Ltd., priority 1988, dated 1990).
# Molecular target: T1, 5-lipoxygenase (Rattus norvegicus, UniProt P12527)
# T1 construct: endogenous in cells; host or cells: RBL-1 (rat basophilic leukemia) cells
# T1 sequence (P12527 1-673): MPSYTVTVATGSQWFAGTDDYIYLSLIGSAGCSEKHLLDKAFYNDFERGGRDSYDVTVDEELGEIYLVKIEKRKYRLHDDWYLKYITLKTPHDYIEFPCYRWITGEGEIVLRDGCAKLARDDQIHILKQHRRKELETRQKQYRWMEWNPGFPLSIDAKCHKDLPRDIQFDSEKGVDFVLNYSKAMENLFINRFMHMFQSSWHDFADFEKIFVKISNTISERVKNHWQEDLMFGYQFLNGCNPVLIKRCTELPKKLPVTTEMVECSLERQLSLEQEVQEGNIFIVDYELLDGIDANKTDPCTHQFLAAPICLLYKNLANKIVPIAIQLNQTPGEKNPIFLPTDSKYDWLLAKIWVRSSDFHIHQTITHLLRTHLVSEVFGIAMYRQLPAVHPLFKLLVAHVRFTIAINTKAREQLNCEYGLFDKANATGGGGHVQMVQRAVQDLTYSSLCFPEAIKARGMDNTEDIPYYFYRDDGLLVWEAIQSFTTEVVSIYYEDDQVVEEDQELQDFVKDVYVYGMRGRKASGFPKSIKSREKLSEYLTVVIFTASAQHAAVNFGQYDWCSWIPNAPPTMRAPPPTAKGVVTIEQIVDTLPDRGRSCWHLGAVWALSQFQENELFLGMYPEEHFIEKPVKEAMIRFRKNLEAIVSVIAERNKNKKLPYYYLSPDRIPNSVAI
# Test: Effect of Inhibiting 5-Lipoxygenase (inhibition of 5-HETE production in RBL-1 cells, HPLC)
# Assay type: cell-based
# Details: 10^-5 M, arachidonic acid + A-23187, 37° C., 20 min, read-out: % Inhibition (IE) of 5-HETE production
# Method: In 0.5 ml of MCM (mast cell medium) was suspended 10^7 of rat basophilic leukemia (RBL-1) cells. To this suspension was added the test solution previously prepared [consisting of 0.5 ml of MCM, […] of arachidonic acid, 10 μg of calcium ionophore A-23187 and the test compound (final concentrations 10 μM, 1 μM, 0.1 μM and 0.01 μM)], and the reaction was allowed to proceed at 37° C. for 20 minutes. To the reaction mixture was added 4 ml of ethanol, which was shaken sufficiently, followed by leaving the resultant mixture standing for 10 minutes at room temperatures. The resultant mixture was subjected to a centrifuge (2000 rpm) for 10 minutes, then the supernatant was separated. Thus-separated supernatant was concentrated to dryness under reduced pressure. To the concentrate was added 0.5 ml of a 60% aqueous methanol. A 100 μl portion of this solution was taken and subjected to high performance liquid chromatography to determine 5-HETE (5-hydroxyeicosatetraenoic acid) quantitatively. UV absorption of 5-HETE at 237 nm was measured with a UV absorption monitor. The inhibitory effect (IE) of 5-HETE is expressed by (1-b/a) x 100. In this formula, a means the height of the peak or the area of the peak in the case of presence of no compound (I), while b means the height of the peak or the area of the peak in the case of containing the compound (I).
row,SMILES,inhibition at 10 µM [%]
1,Cc1c(C)c2c(c(C)c1O)CC(CSCCC(=O)O)O2 (centres unmarked) [Compound 1],100
2,Cc1c(C)c2c(c(C)c1O)CC(CSc1ccccc1)O2 (centres unmarked) [Compound 3],100
3,CCCCCCCCSCC1Cc2c(C)c(O)c(C)c(C)c2O1 (centres unmarked) [Compound 5],100
4,Cc1c(C)c2c(c(C)c1O)CC(CSc1ccccn1)O2 (centres unmarked) [Compound 7],100
5,Cc1c(C)c2c(c(C)c1O)CC(CSc1ccc(F)cc1)O2 (centres unmarked) [Compound 9],100
6,Cc1c(C)c2c(c(C)c1O)CC(CSc1ccc3ccccc3c1)O2 (centres unmarked) [Compound 11],100
7,Cc1c(C)c2c(c(C)c1O)CC(C[S+]([O-])c1ccccc1)O2 (centres unmarked) [Compound 13],100
8,Cc1c(C)c2c(c(C)c1O)CC(CS(=O)(=O)c1ccccc1)O2 (centres unmarked) [Compound 15],100
9,Cc1c(C)c2c(c(C)c1O)CC(CSCc1ccccc1)O2 (centres unmarked) [Compound 17],100
10,Cc1c(C)c2c(c(C)c1O)CC(C)(CSc1ccccc1)O2 (centres unmarked) [Compound 19],100
11,Cc1c(C)c2c(c(C)c1O)CC(C)(CSc1ccc(F)cc1)O2 (centres unmarked) [Compound 21],100
12,Cc1c(C)c2c(c(C)c1O)CC(C)(CNCCc1ccccc1)O2 (centres unmarked) [Compound 25],95

# Same assay, conditions: 10^-6 M, arachidonic acid + A-23187, 37° C., 20 min, read-out: % Inhibition (IE) of 5-HETE production
row,SMILES,inhibition at 1 µM [%]
1,Cc1c(C)c2c(c(C)c1O)CC(CSCCC(=O)O)O2 (centres unmarked) [Compound 1],100
2,Cc1c(C)c2c(c(C)c1O)CC(CSc1ccccc1)O2 (centres unmarked) [Compound 3],100
3,CCCCCCCCSCC1Cc2c(C)c(O)c(C)c(C)c2O1 (centres unmarked) [Compound 5],100
4,Cc1c(C)c2c(c(C)c1O)CC(CSc1ccccn1)O2 (centres unmarked) [Compound 7],100
5,Cc1c(C)c2c(c(C)c1O)CC(CSc1ccc(F)cc1)O2 (centres unmarked) [Compound 9],100
6,Cc1c(C)c2c(c(C)c1O)CC(CSc1ccc3ccccc3c1)O2 (centres unmarked) [Compound 11],100
7,Cc1c(C)c2c(c(C)c1O)CC(C[S+]([O-])c1ccccc1)O2 (centres unmarked) [Compound 13],100
8,Cc1c(C)c2c(c(C)c1O)CC(CS(=O)(=O)c1ccccc1)O2 (centres unmarked) [Compound 15],100
9,Cc1c(C)c2c(c(C)c1O)CC(CSCc1ccccc1)O2 (centres unmarked) [Compound 17],100
10,Cc1c(C)c2c(c(C)c1O)CC(C)(CSc1ccccc1)O2 (centres unmarked) [Compound 19],99
11,Cc1c(C)c2c(c(C)c1O)CC(C)(CSc1ccc(F)cc1)O2 (centres unmarked) [Compound 21],100
12,Cc1c(C)c2c(c(C)c1O)CC(C)(CNCCc1ccccc1)O2 (centres unmarked) [Compound 25],99

# Same assay, conditions: 10^-7 M, arachidonic acid + A-23187, 37° C., 20 min, read-out: % Inhibition (IE) of 5-HETE production
row,SMILES,inhibition at 0.1 µM [%]
1,Cc1c(C)c2c(c(C)c1O)CC(CSCCC(=O)O)O2 (centres unmarked) [Compound 1],64
2,Cc1c(C)c2c(c(C)c1O)CC(CSc1ccccc1)O2 (centres unmarked) [Compound 3],100
3,CCCCCCCCSCC1Cc2c(C)c(O)c(C)c(C)c2O1 (centres unmarked) [Compound 5],48
4,Cc1c(C)c2c(c(C)c1O)CC(CSc1ccccn1)O2 (centres unmarked) [Compound 7],45
5,Cc1c(C)c2c(c(C)c1O)CC(CSc1ccc(F)cc1)O2 (centres unmarked) [Compound 9],96
6,Cc1c(C)c2c(c(C)c1O)CC(CSc1ccc3ccccc3c1)O2 (centres unmarked) [Compound 11],19
7,Cc1c(C)c2c(c(C)c1O)CC(C[S+]([O-])c1ccccc1)O2 (centres unmarked) [Compound 13],8
8,Cc1c(C)c2c(c(C)c1O)CC(CS(=O)(=O)c1ccccc1)O2 (centres unmarked) [Compound 15],19
9,Cc1c(C)c2c(c(C)c1O)CC(CSCc1ccccc1)O2 (centres unmarked) [Compound 17],88
10,Cc1c(C)c2c(c(C)c1O)CC(C)(CSc1ccccc1)O2 (centres unmarked) [Compound 19],87
11,Cc1c(C)c2c(c(C)c1O)CC(C)(CSc1ccc(F)cc1)O2 (centres unmarked) [Compound 21],98
12,Cc1c(C)c2c(c(C)c1O)CC(C)(CNCCc1ccccc1)O2 (centres unmarked) [Compound 25],94

# Same assay, conditions: 10^-8 M, arachidonic acid + A-23187, 37° C., 20 min, read-out: % Inhibition (IE) of 5-HETE production
row,SMILES,inhibition at 0.01 µM [%]
1,Cc1c(C)c2c(c(C)c1O)CC(CSCCC(=O)O)O2 (centres unmarked) [Compound 1],13
2,Cc1c(C)c2c(c(C)c1O)CC(CSc1ccccc1)O2 (centres unmarked) [Compound 3],42
3,CCCCCCCCSCC1Cc2c(C)c(O)c(C)c(C)c2O1 (centres unmarked) [Compound 5],24
4,Cc1c(C)c2c(c(C)c1O)CC(CSc1ccc(F)cc1)O2 (centres unmarked) [Compound 9],8
5,Cc1c(C)c2c(c(C)c1O)CC(CS(=O)(=O)c1ccccc1)O2 (centres unmarked) [Compound 15],10
6,Cc1c(C)c2c(c(C)c1O)CC(C)(CSc1ccccc1)O2 (centres unmarked) [Compound 19],-5
7,Cc1c(C)c2c(c(C)c1O)CC(C)(CSc1ccc(F)cc1)O2 (centres unmarked) [Compound 21],18
8,Cc1c(C)c2c(c(C)c1O)CC(C)(CNCCc1ccccc1)O2 (centres unmarked) [Compound 25],14
